Measured values reported in the kinase profiling compilation of Christmann-Franck et al. (2016).

Experiments:
Assay in all cases: radiometric filter-binding kinase assay
[1] = target: CHEK1 (human) (UniProt O14757)
[2] = target: CHEK2 (human) (UniProt O96017)
[3] = target: CSNK1G2 (human) (UniProt P78368)
[4] = target: DDR2 (human) (UniProt Q16832)
[5] = target: DYRK2 (human) (UniProt Q92630)
[6] = target: EPHB2 (human) (UniProt P29323)
[7] = target: FLT1 (human) (UniProt P17948); conditions: compound 1.0 µM
[8] = target: IGF1R (human) (UniProt P08069)
[9] = target: INSR (human) (UniProt P06213)
[10] = target: JAK2 JH1 JH2 (human) (UniProt O60674); conditions: compound 1.0 µM
[11] = target: MAP2K6 (human) (UniProt P52564)
[12] = target: MAP3K11 (human) (UniProt Q16584)
[13] = target: MAP3K7 (human) (UniProt O43318)
[14] = target: MAP4K3 (human) (UniProt Q8IVH8); conditions: compound 1.0 µM
[15] = target: MAPK10 (human) (UniProt P53779)
[16] = target: MAPKAPK5 (human) (UniProt Q8IW41)
[17] = target: MARK3 (human) (UniProt P27448)
[18] = target: MARK4 (human) (UniProt Q96L34)
[19] = target: MKNK1 (human) (UniProt Q9BUB5)
[20] = target: MYLK (human) (UniProt Q15746)
[21] = system: OXSR1 (human), O95747 [T185E]
[22] = target: PRKAA1 PRKAB2 PRKAG1 (human) (UniProt O43741+Q13131+P54619)
[23] = target: PRKCA (human) (UniProt P17252)
[24] = target: PRKCZ (human) (UniProt Q05513)
[25] = target: PTK6 (human) (UniProt Q13882)
[26] = target: RIPK2 (human) (UniProt O43353); conditions: compound 1.0 µM
[27] = target: RPS6KA5 KD1 KD2 (human) (UniProt O75582)
[28] = target: SRPK1 (human) (UniProt Q96SB4)
[29] = target: STK11 (human) (UniProt Q15831)
[30] = target: STK3 (human) (UniProt Q13188)
[31] = target: TEK (human) (UniProt Q02763)
[32] = target: TESK1 (human) (UniProt Q15569)
[33] = target: YES1 (human) (UniProt P07947); conditions: compound 10.0 µM

Sequence of DDR2 (human) (Q16832 whole entry, looked up): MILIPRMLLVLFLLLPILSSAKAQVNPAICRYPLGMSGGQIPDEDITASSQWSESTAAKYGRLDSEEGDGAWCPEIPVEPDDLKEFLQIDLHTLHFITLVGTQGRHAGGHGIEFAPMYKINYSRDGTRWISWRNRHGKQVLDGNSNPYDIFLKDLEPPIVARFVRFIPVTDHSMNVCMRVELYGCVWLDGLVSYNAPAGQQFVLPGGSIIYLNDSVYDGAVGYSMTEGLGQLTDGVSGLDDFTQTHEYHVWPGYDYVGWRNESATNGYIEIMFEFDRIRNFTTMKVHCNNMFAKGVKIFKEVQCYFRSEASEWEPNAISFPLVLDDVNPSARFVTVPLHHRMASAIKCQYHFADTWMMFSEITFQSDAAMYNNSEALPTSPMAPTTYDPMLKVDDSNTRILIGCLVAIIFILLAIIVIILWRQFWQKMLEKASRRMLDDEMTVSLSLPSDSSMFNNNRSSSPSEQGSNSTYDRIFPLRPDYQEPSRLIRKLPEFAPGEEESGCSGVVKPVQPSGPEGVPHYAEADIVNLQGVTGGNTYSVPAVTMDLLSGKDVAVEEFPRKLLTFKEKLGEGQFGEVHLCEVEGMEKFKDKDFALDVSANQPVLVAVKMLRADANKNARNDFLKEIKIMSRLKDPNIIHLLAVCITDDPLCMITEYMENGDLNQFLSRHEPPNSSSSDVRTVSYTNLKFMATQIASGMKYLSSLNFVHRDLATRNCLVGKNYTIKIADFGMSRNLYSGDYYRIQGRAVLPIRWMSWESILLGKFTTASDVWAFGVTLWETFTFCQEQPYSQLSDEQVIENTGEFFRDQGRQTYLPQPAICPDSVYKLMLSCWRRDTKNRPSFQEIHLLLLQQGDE
Sequence of STK11 (human) (Q15831 whole entry, looked up): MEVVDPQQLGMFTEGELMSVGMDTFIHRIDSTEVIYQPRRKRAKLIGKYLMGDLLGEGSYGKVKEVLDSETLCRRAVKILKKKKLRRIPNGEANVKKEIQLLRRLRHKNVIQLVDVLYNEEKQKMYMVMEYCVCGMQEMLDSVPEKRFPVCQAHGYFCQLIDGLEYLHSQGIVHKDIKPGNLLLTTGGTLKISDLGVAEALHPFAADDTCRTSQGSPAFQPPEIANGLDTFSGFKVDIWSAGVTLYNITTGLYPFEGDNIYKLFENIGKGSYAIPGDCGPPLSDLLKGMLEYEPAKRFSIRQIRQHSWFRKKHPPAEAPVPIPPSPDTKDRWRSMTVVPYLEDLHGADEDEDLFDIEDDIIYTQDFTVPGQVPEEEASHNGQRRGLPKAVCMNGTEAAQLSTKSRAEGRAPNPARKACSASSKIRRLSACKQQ
Sequence of MAPK10 (human) (P53779 whole entry, looked up): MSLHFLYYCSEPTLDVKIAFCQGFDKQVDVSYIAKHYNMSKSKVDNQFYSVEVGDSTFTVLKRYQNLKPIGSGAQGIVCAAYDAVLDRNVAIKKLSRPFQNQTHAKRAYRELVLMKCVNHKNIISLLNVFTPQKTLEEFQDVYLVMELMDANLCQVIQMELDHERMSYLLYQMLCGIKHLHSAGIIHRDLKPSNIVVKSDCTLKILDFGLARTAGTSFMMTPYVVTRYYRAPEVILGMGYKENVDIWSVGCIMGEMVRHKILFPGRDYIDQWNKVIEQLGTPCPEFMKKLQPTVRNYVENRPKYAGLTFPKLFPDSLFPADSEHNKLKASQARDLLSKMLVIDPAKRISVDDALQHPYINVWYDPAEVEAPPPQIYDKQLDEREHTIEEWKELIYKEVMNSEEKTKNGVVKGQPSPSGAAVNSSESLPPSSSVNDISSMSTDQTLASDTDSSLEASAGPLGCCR
Sequence of PRKCZ (human) (Q05513 whole entry, looked up): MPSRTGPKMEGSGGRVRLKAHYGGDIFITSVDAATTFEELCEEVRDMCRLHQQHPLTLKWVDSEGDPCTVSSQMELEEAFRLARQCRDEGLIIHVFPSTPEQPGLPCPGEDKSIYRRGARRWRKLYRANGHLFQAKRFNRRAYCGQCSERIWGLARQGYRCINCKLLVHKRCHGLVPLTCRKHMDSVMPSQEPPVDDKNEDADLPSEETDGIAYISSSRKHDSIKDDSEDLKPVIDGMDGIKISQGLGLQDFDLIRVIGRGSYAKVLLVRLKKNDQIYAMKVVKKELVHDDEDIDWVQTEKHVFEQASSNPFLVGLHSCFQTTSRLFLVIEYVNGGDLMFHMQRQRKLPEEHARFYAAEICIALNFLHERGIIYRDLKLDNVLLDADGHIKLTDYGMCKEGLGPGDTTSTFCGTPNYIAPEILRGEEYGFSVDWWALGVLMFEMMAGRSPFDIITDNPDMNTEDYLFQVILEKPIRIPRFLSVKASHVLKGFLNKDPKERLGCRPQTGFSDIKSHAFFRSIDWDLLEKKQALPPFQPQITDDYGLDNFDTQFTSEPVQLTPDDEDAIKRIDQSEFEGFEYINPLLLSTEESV
Sequence of MKNK1 (human) (Q9BUB5 whole entry, looked up): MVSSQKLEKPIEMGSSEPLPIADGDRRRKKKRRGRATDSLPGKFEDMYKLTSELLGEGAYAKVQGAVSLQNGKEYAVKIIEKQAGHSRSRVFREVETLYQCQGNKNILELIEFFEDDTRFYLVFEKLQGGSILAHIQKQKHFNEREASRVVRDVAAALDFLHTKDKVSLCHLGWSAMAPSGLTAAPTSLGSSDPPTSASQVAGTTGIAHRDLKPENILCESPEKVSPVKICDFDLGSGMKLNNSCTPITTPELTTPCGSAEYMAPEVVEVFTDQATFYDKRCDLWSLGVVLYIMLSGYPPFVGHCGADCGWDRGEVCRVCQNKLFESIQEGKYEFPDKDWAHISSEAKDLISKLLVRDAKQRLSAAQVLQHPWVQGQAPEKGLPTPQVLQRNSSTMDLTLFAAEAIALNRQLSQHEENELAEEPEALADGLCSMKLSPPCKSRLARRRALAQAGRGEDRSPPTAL
Sequence of CHEK2 (human) (O96017 whole entry, looked up): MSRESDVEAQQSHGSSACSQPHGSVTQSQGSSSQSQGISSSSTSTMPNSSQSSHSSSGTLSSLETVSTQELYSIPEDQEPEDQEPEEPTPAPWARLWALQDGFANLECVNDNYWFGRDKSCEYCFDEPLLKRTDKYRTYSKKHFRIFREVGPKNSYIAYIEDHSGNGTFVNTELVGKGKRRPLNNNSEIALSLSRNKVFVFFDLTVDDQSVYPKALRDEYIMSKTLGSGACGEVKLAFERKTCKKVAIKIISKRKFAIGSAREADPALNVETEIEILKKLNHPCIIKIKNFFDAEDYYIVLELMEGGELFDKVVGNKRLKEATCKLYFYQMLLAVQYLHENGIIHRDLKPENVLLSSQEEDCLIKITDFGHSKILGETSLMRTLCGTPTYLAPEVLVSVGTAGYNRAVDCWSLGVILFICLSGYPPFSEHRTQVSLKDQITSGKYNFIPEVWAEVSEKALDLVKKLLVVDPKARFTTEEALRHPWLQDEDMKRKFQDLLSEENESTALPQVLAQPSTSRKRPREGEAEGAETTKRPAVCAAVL
Sequence of MAP3K11 (human) (Q16584 whole entry, looked up): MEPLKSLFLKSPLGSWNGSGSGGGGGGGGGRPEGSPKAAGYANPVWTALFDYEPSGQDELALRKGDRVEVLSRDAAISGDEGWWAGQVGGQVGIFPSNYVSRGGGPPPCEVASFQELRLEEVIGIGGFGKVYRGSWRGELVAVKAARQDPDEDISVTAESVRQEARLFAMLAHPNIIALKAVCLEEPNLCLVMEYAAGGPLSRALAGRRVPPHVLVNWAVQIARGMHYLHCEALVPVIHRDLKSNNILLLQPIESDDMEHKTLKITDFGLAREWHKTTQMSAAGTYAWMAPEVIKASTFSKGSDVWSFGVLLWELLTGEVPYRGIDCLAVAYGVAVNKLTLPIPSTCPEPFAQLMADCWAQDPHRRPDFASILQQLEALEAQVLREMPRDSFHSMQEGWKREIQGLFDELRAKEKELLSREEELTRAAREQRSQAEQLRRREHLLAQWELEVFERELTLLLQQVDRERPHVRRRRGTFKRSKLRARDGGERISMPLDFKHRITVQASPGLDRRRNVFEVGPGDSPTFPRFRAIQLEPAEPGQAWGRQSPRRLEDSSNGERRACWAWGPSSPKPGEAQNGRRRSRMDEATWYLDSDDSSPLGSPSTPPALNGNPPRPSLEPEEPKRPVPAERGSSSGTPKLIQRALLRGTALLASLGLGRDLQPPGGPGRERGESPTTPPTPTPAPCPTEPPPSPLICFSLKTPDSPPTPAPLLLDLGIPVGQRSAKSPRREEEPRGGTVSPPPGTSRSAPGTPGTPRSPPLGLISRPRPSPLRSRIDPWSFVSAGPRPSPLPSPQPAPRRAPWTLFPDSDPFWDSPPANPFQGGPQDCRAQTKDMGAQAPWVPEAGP
Sequence of SRPK1 (human) (Q96SB4 whole entry, looked up): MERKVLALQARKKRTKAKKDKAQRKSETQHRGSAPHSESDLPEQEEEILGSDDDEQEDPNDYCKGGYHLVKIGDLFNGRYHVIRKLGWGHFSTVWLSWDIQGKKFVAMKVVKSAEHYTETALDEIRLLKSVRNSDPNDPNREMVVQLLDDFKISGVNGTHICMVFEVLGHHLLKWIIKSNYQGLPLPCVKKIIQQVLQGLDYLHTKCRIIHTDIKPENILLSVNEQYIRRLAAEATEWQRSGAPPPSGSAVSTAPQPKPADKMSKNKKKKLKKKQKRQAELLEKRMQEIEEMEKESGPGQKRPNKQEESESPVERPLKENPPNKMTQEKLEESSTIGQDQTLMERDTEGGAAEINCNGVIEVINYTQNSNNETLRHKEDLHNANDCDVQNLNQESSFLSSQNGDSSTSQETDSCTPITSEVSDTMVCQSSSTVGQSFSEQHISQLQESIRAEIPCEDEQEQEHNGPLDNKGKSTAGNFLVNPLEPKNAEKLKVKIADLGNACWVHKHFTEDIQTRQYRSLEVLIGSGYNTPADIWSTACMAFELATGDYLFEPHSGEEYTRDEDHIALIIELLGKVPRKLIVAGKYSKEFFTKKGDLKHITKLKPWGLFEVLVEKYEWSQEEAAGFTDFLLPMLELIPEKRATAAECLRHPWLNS

`CNc1nc(Nc2ccc(C(=O)N3CCOCC3)cc2OC)ncc1Cl` gave a residual activity ([1]; compound 1.0 µM) of 65%, a residual activity ([1]; compound 10.0 µM) of 45% and a residual activity ([2]; compound 1.0 µM) of 52%. For the same compound, the residual activity ([2]; compound 10.0 µM) was 96%, the residual activity ([3]; compound 1.0 µM) was 96% and the residual activity ([3]; compound 10.0 µM) was 93%. For the same compound, the residual activity ([4]; compound 1.0 µM) was 103%, the residual activity ([4]; compound 10.0 µM) was 90% and the residual activity ([5]; compound 1.0 µM) was 44%. The residual activity ([5]; compound 10.0 µM) was 21%, the residual activity ([6]; compound 1.0 µM) was 105% and the residual activity ([6]; compound 10.0 µM) was 103%. It also gave a residual activity [7] of 65%, a residual activity ([8]; compound 1.0 µM) of 100% and a residual activity ([8]; compound 10.0 µM) of 51%. For the same compound, the residual activity ([9]; compound 1.0 µM) was 86%, the residual activity ([9]; compound 10.0 µM) was 50% and the residual activity [10] was 83%. It also gave a residual activity ([11]; compound 1.0 µM) of 74%, a residual activity ([11]; compound 10.0 µM) of 65% and a residual activity ([12]; compound 1.0 µM) of 75%. It also gave a residual activity ([12]; compound 10.0 µM) of 43%, a residual activity ([13]; compound 1.0 µM) of 74% and a residual activity ([13]; compound 10.0 µM) of 25%. The residual activity [14] was 94%, the residual activity ([15]; compound 1.0 µM) was 60% and the residual activity ([15]; compound 10.0 µM) was 29%. It also gave a residual activity ([16]; compound 1.0 µM) of 91%, a residual activity ([16]; compound 10.0 µM) of 44% and a residual activity ([17]; compound 1.0 µM) of 91%. The residual activity ([17]; compound 10.0 µM) was 78%, the residual activity ([18]; compound 1.0 µM) was 82% and the residual activity ([18]; compound 10.0 µM) was 72%. It also gave a residual activity ([19]; compound 1.0 µM) of 71%, a residual activity ([19]; compound 10.0 µM) of 44% and a residual activity ([20]; compound 1.0 µM) of 83%. For the same compound, the residual activity ([20]; compound 10.0 µM) was 55%, the residual activity ([21]; compound 1.0 µM) was 108% and the residual activity ([21]; compound 10.0 µM) was 82%. It also gave a residual activity ([22]; compound 1.0 µM) of 91%, a residual activity ([22]; compound 10.0 µM) of 71% and a residual activity ([23]; compound 1.0 µM) of 66%. The residual activity ([23]; compound 10.0 µM) was 87%, the residual activity ([24]; compound 1.0 µM) was 99% and the residual activity ([24]; compound 10.0 µM) was 101%. For the same compound, the residual activity ([25]; compound 1.0 µM) was 56%, the residual activity ([25]; compound 10.0 µM) was 39% and the residual activity [26] was 79%. For the same compound, the residual activity ([27]; compound 1.0 µM) was 104%, the residual activity ([27]; compound 10.0 µM) was 84% and the residual activity ([28]; compound 1.0 µM) was 96%. It also gave a residual activity ([28]; compound 10.0 µM) of 94%, a residual activity ([29]; compound 1.0 µM) of 92% and a residual activity ([29]; compound 10.0 µM) of 90%. The residual activity ([30]; compound 1.0 µM) was 85%, the residual activity ([30]; compound 10.0 µM) was 73% and the residual activity ([31]; compound 1.0 µM) was 79%. The residual activity ([31]; compound 10.0 µM) was 90%, the residual activity ([32]; compound 1.0 µM) was 90% and the residual activity ([32]; compound 10.0 µM) was 83%. For the same compound, the residual activity [33] was 90%.
